The text below walks through data of the RepoRT retention time repository.

The data set can be described thus: A: acetonitrile + 0.1% formic acid + 10 mM ammonium formate; B: 5% water + 95% acetonitrile + 0.1% formic acid + 10 mM ammonium formate; gradient (min/%B) 0/10 2/10 22/100 27/100 27.1/10. Conditions: stereoisomer not certain.

For `NC(CCCC(N)C(=O)O)C(=O)O` (stereo not given) [2,6-Diaminopimelic Acid], the LC retention time came to 8.06 min.
For the compound `COc1ccc2c(c1OC)=CN1CCc3cc4c(cc3C1C=2)OCO4` (stereo not given) [Berberine], the LC retention time was 0.872 min.
The same measure for `CCN(CC)CC#CCOC(=O)C(O)(c1ccccc1)C1CCCCC1` (stereo not given) [Oxybutynin]: 0.847 min.
`NC(N)=Nc1nc(CSCCC(N)=NS(N)(=O)=O)cs1` [Famotidine]: the LC retention time came out at 2.9 min.
The same measure for `OCC1OC(OC2C(CO)OC(O)(CO)C2O)C(O)C(O)C1O` (stereo not given) [Lactulose]: 6.6 min; for `Cc1cc2nc3c(=O)[nH]c(=O)nc-3n(CC(O)C(O)C(O)COP(=O)(O)O)c2cc1C` (stereo not given) [Riboflavin 5'-Monophosphate]: 6.38 min; for `Cc1ncc(CO)c(CN)c1O` [Pyridoxamine]: 6.5 min.
The same measure for `N[C@@H](CCO)C(=O)O` [L-Homoserine]: 6.32 min.
As for `O=c1[nH]cnc2[nH]ncc12` [Allopurinol], the LC retention time was 0.996 min.
`CNC(=C[N+](=O)[O-])NCCSCc1ccc(CN(C)C)o1` [Ranitidine]: the LC retention time amounted to 3.12 min.
As for `O=C(O)COCCN1CCN(C(c2ccccc2)c2ccc(Cl)cc2)CC1` (stereo not given) [Cetirizine], the LC retention time came out at 1.33 min.
With `COc1ccc(-c2coc3cc(O)cc(O)c3c2=O)cc1` [Biochanin A], the LC retention time is 0.424 min.
Turning to `NCCOP(=O)(O)O` [O-Phosphorylethanolamine], the LC retention time came out at 7.28 min.
The same measure for `CC(=O)O[C@H](CC(=O)[O-])C[N+](C)(C)C` [O-Acetyl-L-carnitine]: 5.88 min; for `NCCCC(N)C(=O)O` (stereo not given) [Ornithine]: 7.71 min; for `CSCC[C@H](NC(C)=O)C(=O)O` [N-Acetyl-L-methionine]: 1.97 min.
To `Cn1c[n+](C2OC(CO)C(O)C2O)c2nc(N)nc([O-])c21` (stereo not given) [7-Methylguanosine] belongs 5.34 min; to `CC1=CCC2CC1C2(C)C` (single isomer, unassigned; (-)) [(-)-alpha-Pinene], 0.438 min; to `C=C1CC23CCC4C(C)(C(=O)OC5OC(CO)C(O)C(O)C5O)CCCC4(C)C2CCC1(OC1OC(CO)C(O)C(O)C1OC1OC(CO)C(O)C(O)C1O)C3` (stereo not given) [Stevioside], 4.85 min.
`CCC(=C(c1ccccc1)c1ccc(OCCN(C)C)cc1)c1ccccc1` [Tamoxifen]: the LC retention time turned out to be 0.887 min.
To `Nc1nc2c(ncn2CCC(CO)CO)c(=O)[nH]1` [Penciclovir] belongs 4.51 min.
As for `CC(=O)OCC(=O)C12OC3(CCCC3)OC1CC1C3CCC4=CC(=O)C=CC4(C)C3(F)C(O)CC12C` (stereo not given) [Amcinonide], the LC retention time is 0.433 min.
To `O=C(O)CCCCCCC(=O)O` [Suberic acid] belongs 0.712 min; to `NCC(N)C(=O)O` (racemic) [DL-2,3-Diaminopropionic acid], 7.79 min; to `OCC1OC(OC2C(CO)OC(OC3C(CO)OC(O)C(O)C3O)C(O)C2O)C(O)C(O)C1O` (stereo not given) [Maltotriose], 7.44 min.
In the case of `CNC(=O)c1cccnc1` [N'-Methylnicotinamide], the LC retention time is 0.564 min.
The same measure for `O=C(O)c1ccncc1` [Isonicotinic acid]: 3.05 min; for `Nc1nc2ncc(CNc3ccc(C(=O)NC(CCC(=O)O)C(=O)O)cc3)nc2c(=O)[nH]1` (stereo not given) [Folic acid]: 5.87 min; for `CC12CCC(=O)C=C1CCC1C2CCC2(C)C1CCC2(O)C(=O)CO` (stereo not given) [Cortexolone]: 0.459 min.
Turning to `COC(=O)C(Cc1ccccc1)NC(=O)C(N)CC(=O)O` (stereo not given) [Aspartame], the LC retention time is 4 min.
Consider `Cc1cc2nc3c(=O)[nH]c(=O)nc-3n(CC(O)C(O)C(O)CO)c2cc1C` (stereo not given) [Riboflavin], for which the LC retention time was 3.65 min.
Turning to `CN(C)CC(=O)O` [N,N-Dimethylglycine], the LC retention time was 5.8 min.
The same measure for `Cc1ccccc1C(=O)NCC(=O)O` [2-Methylhippuric acid]: 3.28 min; for `O=c1ccn(C2CC(O)C(CO)O2)c(=O)[nH]1` (stereo not given) [2'-Deoxyuridine]: 1.23 min; for `CCCCCCC(N)C(=O)O` (stereo not given) [2-Aminooctanoic acid]: 4.11 min.
`CC(=O)NCCCC(=O)O` [4-(Acetylamino)butanoic acid]: the LC retention time is 1.23 min.
For the compound `CCC(C)C(=O)OC1CC(C)C=C2C=CC(C)C(CCC3CC(O)CC(=O)O3)C21` (stereo not given) [Lovastatin], the LC retention time was found to be 0.419 min.
In the case of `COc1cc(C=CC(=O)O)cc(OC)c1OC` [3,4,5-Trimethoxycinnamic acid], the LC retention time came out at 0.47 min.
Take `Nc1ccc(O)cc1` [4-Aminophenol]: the LC retention time worked out at 0.517 min.
`NC(=O)NCCC(=O)O` [3-Ureidopropionic acid]: the LC retention time was 4.57 min.
The same measure for `CC(=O)C1(O)CCC2C3CC(C)C4=CC(=O)CCC4(C)C3CCC21C` (stereo not given) [Medroxyprogesterone]: 0.429 min; for `CN1C(C(=O)Nc2ccccn2)=C(O)c2ccccc2S1(=O)=O` [Piroxicam]: 0.44 min; for `COC(=O)Cc1ccc(C(C)(C)C)cc1` [Methyl p-tert-butylphenylacetate]: 0.415 min.
`C[N+](C)(C)CCOP(=O)([O-])OCC(O)CO` (stereo not given) [sn-glycero-3-Phosphocholine]: the LC retention time turned out to be 7.21 min.
On to `COC(=O)CCCC(=O)O` [Monomethyl glutarate], for which the LC retention time is 0.562 min.
As to `Cn1cncc1C[C@H](N)C(=O)O` [3-Methyl-L-histidine], the LC retention time was 7.74 min.
Consider `CC12CCC(=O)C=C1C=CC1C2CCC2(C)C1CCC21CCC(=O)O1` (stereo not given) [Canrenone], for which the LC retention time amounted to 0.429 min.
Consider `CCN(CC)CCNC(=O)c1ccc(N)cc1` [Procainamide], for which the LC retention time is 2.3 min.
As for `CSCC[C@H](NC=O)C(=O)O` [N-Formyl-L-methionine], the LC retention time was 2.34 min.
Regarding `CCC1C(=O)OCC1Cc1cncn1C` (stereo not given) [Pilocarpine], the LC retention time was found to be 1.22 min.
Consider `CCN(CC)CCOc1ccc(C(=C(Cl)c2ccccc2)c2ccccc2)cc1` [Clomiphene], for which the LC retention time worked out at 0.799 min.
As for `CC(C)Oc1ccc2c(=O)c(-c3ccccc3)coc2c1` [Ipriflavone], the LC retention time turned out to be 0.767 min.
To `COc1ccc2[nH]cc(CCNC(C)=O)c2c1` [Melatonin] belongs 0.468 min; to `O=C(O)c1cccnc1` [Nicotinic acid], 2.44 min.
Turning to `N[C@@H](CSSC[C@H](N)C(=O)O)C(=O)O` [L-Cystine], the LC retention time was determined as 8.16 min.
For `OCC(O)C(O)C(O)CO` (stereo not given) [Xylitol], the LC retention time came to 5.38 min.
Turning to `O=c1cc(CO)occ1O` [Kojic acid], the LC retention time turned out to be 1.22 min.
For `NC(CCS)C(=O)O` (racemic) [DL-Homocysteine], the LC retention time worked out at 5.69 min.
Regarding `CNCCC(Oc1ccc(C(F)(F)F)cc1)c1ccccc1` (stereo not given) [Fluoxetine], the LC retention time came out at 0.978 min.
On to `NC(=O)c1ccc[n+](C2OC(COP(=O)(O)OP(=O)([O-])OCC3OC(n4cnc5c(N)ncnc54)C(O)C3O)C(O)C2O)c1` (stereo not given) [NAD], for which the LC retention time was determined as 7.82 min.
